From ChEMBL document CHEMBL4417633, “Inhibitory polypeptides specific to WNT inhibitors” (2017)
Activity calls are given as the source filed them. No cut-off for these calls is given here. Where a SMILES comes first, the peptide text is derived from it.

Assays:
[1] = molecular target: T1, Dickkopf-related protein 1 (Homo sapiens) (UniProt O94907); assay: (§1) Inhibition of biotin-labeled human recombinant DKK1 assessed as reduction in DKK1 interaction with LRP-6/Fc incubated overnight by chemiluminescence based Alpha-screen assay
T1 sequence (whole entry): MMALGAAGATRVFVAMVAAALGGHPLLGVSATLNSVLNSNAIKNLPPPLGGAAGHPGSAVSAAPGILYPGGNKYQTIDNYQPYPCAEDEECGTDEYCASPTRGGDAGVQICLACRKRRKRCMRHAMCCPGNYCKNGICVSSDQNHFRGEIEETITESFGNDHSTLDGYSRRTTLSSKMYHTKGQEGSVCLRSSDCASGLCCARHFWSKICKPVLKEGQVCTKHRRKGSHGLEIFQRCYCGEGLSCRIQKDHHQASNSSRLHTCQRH

[2] = molecular target: T2, Dickkopf WNT-signaling pathway inhibitor 1 (Rattus norvegicus) (UniProt A6I0Z0); assay: (§2) Inhibition of biotin-labeled rat recombinant DKK1 assessed as reduction in DKK1 interaction with LRP-6/Fc incubated overnight by chemiluminescence based Alpha-screen assay
T2 sequence (whole entry): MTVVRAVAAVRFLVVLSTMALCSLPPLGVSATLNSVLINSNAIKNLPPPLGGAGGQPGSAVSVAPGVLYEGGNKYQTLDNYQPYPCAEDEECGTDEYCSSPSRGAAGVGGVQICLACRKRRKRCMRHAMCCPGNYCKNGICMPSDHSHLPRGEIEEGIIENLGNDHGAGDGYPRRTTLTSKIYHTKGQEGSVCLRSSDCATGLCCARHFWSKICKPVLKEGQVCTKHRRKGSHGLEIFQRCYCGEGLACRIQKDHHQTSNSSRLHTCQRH

[3] = molecular target: T3, Dickkopf-related protein 1 (Homo sapiens, UniProt O94907); assay: Inhibition of human DKK1 in MC3T3E1/TetON-Wnt1/STF-Luc#5 cells assessed as DKK1 neutralizing activity by Wnt1-induced TCF/LEF luciferase reporter gene assay
T3 sequence (O94907 whole entry): T1 sequence (whole entry)

[4] = molecular target: T3, Dickkopf-related protein 1; assay: as §1
[5] = molecular target: T4, Dickkopf WNT-signaling pathway inhibitor 1 (Rattus norvegicus, UniProt A6I0Z0); assay: as §2
T4 sequence (A6I0Z0 whole entry): T2 sequence (whole entry)

Compound	inhibition [1]	inhibition [2]	IC50 [3] [nM]	IC50 [4] [nM]	IC50 [5] [nM]
CSCC[C@H](NC(=O)[C@@H]1CCCN1C(=O)[C@H](Cc1ccc(O)cc1)NC(=O)[C@H](CS)NC(=O)[C@H](Cc1cnc[nH]1)NC(=O)[C@@H]1CCCN1C(=O)[C@H](Cc1cnc[nH]1)NC(=O)[C@H](CC(N)=O)NC(=O)[C@H](CCCNC(=N)N)NC(=O)[C@H](CS)NC(=O)[C@H](CCC(N)=O)NC(=O)[C@H](Cc1ccccc1)NC(=O)[C@H](Cc1ccc(O)cc1)NC(=O)[C@H](CO)NC(=O)[C@H](CCC(=O)O)NC(=O)[C@@H]1CCCN1C(=O)[C@@H](N)CS)C(=O)N[C@@H](CCC(=O)O)C(=O)N[C@@H](Cc1c[nH]c2ccccc12)C(=O)N[C@@H](CCCNC(=N)N)C(=O)N[C@@H](CS)C(=O)N[C@@H](CC(=O)O)C(=O)NCC(=O)N[C@@H](Cc1ccccc1)C(=O)N[C@@H](CCC(=O)O)C(=O)N[C@@H](CC(=O)O)C(=O)N[C@@H](CS)C(=O)N[C@H](C(=O)N[C@@H](CC(=O)O)C(=O)NCC(=O)N[C@@H](CO)C(=O)N[C@@H](CC(=O)O)C(=O)N[C@@H](CCC(=O)O)C(=O)N[C@@H](CC(C)C)C(=O)N[C@@H](CC(=O)O)C(=O)N[C@@H](CS)C(=O)NCC(=O)NCC(=O)NCC(=O)NCC(=O)O)C(C)C (H-CPESYFQCRNHPHCYPMEWRCDGFEDCVDGSDELDCGGGG-OH)	Active	Active	0.8 to 3		
CSCC[C@H](NC(=O)[C@H](CCCCN)NC(=O)[C@H](CC(=O)O)NC(=O)[C@@H]1CCCN1C(=O)[C@H](CS)NC(=O)[C@H](CCSC)NC(=O)[C@H](Cc1ccccc1)NC(=O)[C@H](CCC(=O)O)NC(=O)[C@H](CC(N)=O)NC(=O)[C@H](CO)NC(=O)[C@@H]1CCCN1C(=O)[C@@H](N)CS)C(=O)N[C@@H](CS)C(=O)N[C@@H](Cc1ccccc1)C(=O)N1CCC[C@H]1C(=O)N[C@@H](CC(C)C)C(=O)N[C@@H](CO)C(=O)N[C@@H](Cc1ccccc1)C(=O)N[C@@H](CCCNC(=N)N)C(=O)N[C@@H](CS)C(=O)N[C@@H](CC(=O)O)C(=O)NCC(=O)N[C@@H](CCC(=O)O)C(=O)N[C@@H](CC(N)=O)C(=O)N[C@@H](CC(=O)O)C(=O)N[C@@H](CS)C(=O)N[C@@H](CCC(=O)O)C(=O)N[C@@H](CC(=O)O)C(=O)NCC(=O)N[C@@H](CO)C(=O)N[C@@H](CC(=O)O)C(=O)N[C@@H](CCC(=O)O)C(=O)N[C@@H](CC(C)C)C(=O)N[C@@H](Cc1ccc(O)cc1)C(=O)N[C@@H](CS)C(=O)N1CCC[C@H]1C(=O)N[C@@H](CO)C(=O)N[C@@H](CCCNC(=N)N)C(=O)N[C@H](C(=O)O)[C@@H](C)O (H-CPSNEFMCPDKMCFPLSFRCDGENDCEDGSDELYCPSRT-OH)				≤ 1	≤ 1
CC[C@H](C)[C@H](NC(=O)[C@H](CCCNC(=N)N)NC(=O)[C@H](CS)NC(=O)[C@H](CCC(N)=O)NC(=O)[C@H](Cc1ccccc1)NC(=O)[C@H](Cc1ccc(O)cc1)NC(=O)[C@H](CO)NC(=O)[C@@H](NC(=O)[C@@H]1CCCN1C(=O)[C@@H](N)CS)C(C)C)C(=O)N[C@@H](Cc1ccc(O)cc1)C(=O)N[C@@H](CC(N)=O)C(=O)N[C@@H](Cc1cnc[nH]1)C(=O)N[C@@H](CS)C(=O)N[C@@H](Cc1ccc(O)cc1)C(=O)N1CCC[C@H]1C(=O)N[C@@H](CCSC)C(=O)N[C@@H](CCC(=O)O)C(=O)N[C@@H](Cc1c[nH]c2ccccc12)C(=O)N[C@@H](CCCNC(=N)N)C(=O)N[C@@H](CS)C(=O)N[C@@H](CC(=O)O)C(=O)NCC(=O)N[C@@H](Cc1ccccc1)C(=O)N[C@@H](CCC(=O)O)C(=O)N[C@@H](CC(=O)O)C(=O)N[C@@H](CS)C(=O)N[C@H](C(=O)N[C@@H](CC(=O)O)C(=O)NCC(=O)N[C@@H](CO)C(=O)N[C@@H](CC(=O)O)C(=O)N[C@@H](CCC(=O)O)C(=O)N[C@@H](CCCCN)C(=O)NCC(=O)N[C@@H](CS)C(=O)N1CCC[C@H]1C(=O)N[C@@H](Cc1ccc(O)cc1)C(=O)N[C@@H](CCCNC(=N)N)C(=O)N[C@H](C(=O)O)[C@@H](C)O)C(C)C (H-CPVSYFQCRIYNHCYPMEWRCDGFEDCVDGSDEKGCPYRT-OH)				≤ 1	≤ 1

Second part, the molecule after the results:

inhibition [1]	inhibition [2]	IC50 [3] [nM]	IC50 [4] [nM]	IC50 [5] [nM]	Compound
Active	Active	0.8 to 3			CC[C@H](C)[C@H](NC(=O)[C@H](CS)NC(=O)[C@H](CC(=O)O)NC(=O)[C@@H]1CCCN1C(=O)[C@H](Cc1ccccc1)NC(=O)CNC(=O)[C@H](CC(=O)O)NC(=O)[C@H](CS)NC(=O)[C@H](CCCNC(=N)N)NC(=O)[C@H](Cc1c[nH]c2ccccc12)NC(=O)[C@H](CCC(=O)O)NC(=O)[C@H](CCSC)NC(=O)[C@@H]1CCCN1C(=O)[C@H](Cc1ccc(O)cc1)NC(=O)[C@H](CS)NC(=O)[C@H](Cc1cnc[nH]1)NC(=O)[C@H](CCCCN)NC(=O)[C@H](Cc1ccc(O)cc1)NC(=O)[C@H](CCC(=O)O)NC(=O)[C@H](CCCNC(=N)N)NC(=O)[C@H](CS)NC(=O)[C@H](CCC(N)=O)NC(=O)[C@H](Cc1ccccc1)NC(=O)[C@H](Cc1ccc(O)cc1)NC(=O)[C@H](CO)NC(=O)[C@H](CCC(=O)O)NC(=O)[C@@H]1CCCN1C(=O)[C@@H](N)CS)C(=O)N[C@@H](CC(=O)O)C(=O)N[C@@H](CO)C(=O)N[C@@H](CO)C(=O)N[C@@H](CC(=O)O)C(=O)N[C@@H](CCC(=O)O)C(=O)N[C@H](C(=O)N[C@@H](CC(=O)O)C(=O)N[C@@H](CS)C(=O)NCC(=O)NCC(=O)NCC(=O)NCC(=O)O)[C@@H](C)O (H-CPESYFQCREYKHCYPMEWRCDGFPDCIDSSDETDCGGGG-OH)
Active	Active	0.8 to 3			CC[C@H](C)[C@H](NC(=O)[C@H](CS)NC(=O)[C@H](CC(=O)O)NC(=O)[C@@H]1CCCN1C(=O)[C@H](Cc1ccccc1)NC(=O)CNC(=O)[C@H](CC(=O)O)NC(=O)[C@H](CS)NC(=O)[C@H](CCCNC(=N)N)NC(=O)[C@H](Cc1c[nH]c2ccccc12)NC(=O)[C@H](CCC(=O)O)NC(=O)[C@H](CCSC)NC(=O)[C@@H]1CCCN1C(=O)[C@H](Cc1ccc(O)cc1)NC(=O)[C@H](CS)NC(=O)[C@H](Cc1cnc[nH]1)NC(=O)[C@@H]1CCCN1C(=O)[C@H](Cc1cnc[nH]1)NC(=O)[C@H](CC(N)=O)NC(=O)[C@H](CCCNC(=N)N)NC(=O)[C@H](CS)NC(=O)[C@@H]1CCCN1C(=O)[C@H](Cc1ccccc1)NC(=O)[C@H](Cc1ccc(O)cc1)NC(=O)[C@@H](NC(=O)[C@H](C)NC(=O)[C@@H]1CCCN1C(=O)[C@@H](N)CS)[C@@H](C)O)C(=O)N[C@@H](CC(=O)O)C(=O)N[C@@H](CCC(=O)O)C(=O)N[C@@H](CO)C(=O)N[C@@H](CC(=O)O)C(=O)N[C@@H](CCC(=O)O)C(=O)N[C@@H](CCSC)C(=O)NCC(=O)N[C@@H](CS)C(=O)NCC(=O)NCC(=O)NCC(=O)NCC(=O)O (H-CPATYFPCRNHPHCYPMEWRCDGFPDCIDESDEMGCGGGG-OH)
Active	Active	0.8 to 3			CSCC[C@H](NC(=O)[C@@H]1CCCN1C(=O)[C@H](Cc1ccc(O)cc1)NC(=O)[C@H](CS)NC(=O)[C@H](Cc1cnc[nH]1)NC(=O)[C@@H]1CCCN1C(=O)[C@H](Cc1cnc[nH]1)NC(=O)[C@H](CCCNC(=N)N)NC(=O)[C@H](CCCNC(=N)N)NC(=O)[C@H](CS)NC(=O)[C@H](CCC(N)=O)NC(=O)[C@H](Cc1ccccc1)NC(=O)[C@H](Cc1ccc(O)cc1)NC(=O)[C@H](CO)NC(=O)[C@H](C)NC(=O)[C@@H]1CCCN1C(=O)[C@@H](N)CS)C(=O)N[C@@H](CCC(=O)O)C(=O)N[C@@H](Cc1c[nH]c2ccccc12)C(=O)N[C@@H](CCCNC(=N)N)C(=O)N[C@@H](CS)C(=O)N[C@@H](CC(=O)O)C(=O)NCC(=O)N[C@@H](Cc1ccccc1)C(=O)N1CCC[C@H]1C(=O)N[C@@H](CC(=O)O)C(=O)N[C@@H](CS)C(=O)N[C@@H](CC(C)C)C(=O)N[C@@H](CC(=O)O)C(=O)NCC(=O)N[C@@H](CO)C(=O)N[C@@H](CC(=O)O)C(=O)N[C@@H](CCC(=O)O)C(=O)N[C@@H](CCC(=O)O)C(=O)NCC(=O)N[C@@H](CS)C(=O)NCC(=O)NCC(=O)NCC(=O)NCC(=O)O (H-CPASYFQCRRHPHCYPMEWRCDGFPDCLDGSDEEGCGGGG-OH)
Active	Active	0.8 to 3			CSCC[C@H](NC(=O)[C@@H]1CCCN1C(=O)[C@H](Cc1ccc(O)cc1)NC(=O)[C@H](CS)NC(=O)[C@H](Cc1cnc[nH]1)NC(=O)[C@@H]1CCCN1C(=O)[C@H](Cc1cnc[nH]1)NC(=O)[C@H](Cc1ccc(O)cc1)NC(=O)[C@H](CCCNC(=N)N)NC(=O)[C@H](CS)NC(=O)[C@H](CCCCN)NC(=O)[C@H](Cc1ccccc1)NC(=O)[C@H](Cc1ccc(O)cc1)NC(=O)[C@H](CO)NC(=O)[C@H](C)NC(=O)[C@@H]1CCCN1C(=O)[C@@H](N)CS)C(=O)N[C@@H](CCC(=O)O)C(=O)N[C@@H](Cc1c[nH]c2ccccc12)C(=O)N[C@@H](CCCNC(=N)N)C(=O)N[C@@H](CS)C(=O)N[C@@H](CC(=O)O)C(=O)NCC(=O)N[C@@H](Cc1ccccc1)C(=O)N[C@@H](CO)C(=O)N[C@@H](CC(=O)O)C(=O)N[C@@H](CS)C(=O)N[C@H](C(=O)N[C@@H](CC(=O)O)C(=O)NCC(=O)N[C@@H](CO)C(=O)N[C@@H](CC(=O)O)C(=O)N[C@@H](CCC(=O)O)C(=O)N[C@@H](CCC(=O)O)C(=O)N[C@@H](C)C(=O)N[C@@H](CS)C(=O)NCC(=O)NCC(=O)NCC(=O)NCC(=O)O)C(C)C (H-CPASYFKCRYHPHCYPMEWRCDGFSDCVDGSDEEACGGGG-OH)
